Source: patent US20230295162A1 (EÖTVÖS LORÁND TUDOMÁNYEGYETEM, priority 2020, published 2023)

How the values were obtained:
[1] = tested on: EBC-1 lung cancer cell line; assay: High-throughput screening, CellTiter-Glo cell viability assay at 100 nM; type: cell-based, human; conditions: Homo sapiens, EBC-1, HTS, compounds at 100 nM, 72 h, read-out: cytotoxicity expressed in IC50, EBC-1 (results of High throughput screening)
Method: (§1) EBC-1 (obtained from JRCB, https://cellbank.nibiohn.go.jp/english/) and H2228 (obtained from ATCC https://www.lgcstandards-atcc.org/) cell lines were maintained according to the instructions provided by JRCB and ATCC in a 5% CO2 humidified incubator maintained at 37° C. temperature. Effect of compounds on cell viability was measured via CellTiter-Glo® luminescent cell viability assay (Promega, Madison, WI, USA). Cells were plated at 1000 cells/well onto a flat-bottomed, white 96 well plate (BRANDplates, cat. no.: 781965). After 24 h, cells were treated for 72 h with the compounds at 100 nM concentration. After the treatment, medium was removed and CellTiter-Glo® reagent was added. Untreated cells were used as control. The luminescence signal was recorded using a microplate reader (BioTek Synergy 2 Multi-Mode Reader, BioTek, Winooski, VT, USA). Cell viability data (% of untreated control cells) was evaluated with Microsoft Excel.

[2] = tested on: H2228 lung cancer cell line; assay: as above; type: cell-based, human; conditions: Homo sapiens, NCI-H2228, HTS, compounds at 100 nM, 72 h, read-out: cytotoxicity expressed in IC50, H2228 (results of High throughput screening)
Method: as §1

[3] = tested on: PANC-1 (human pancreatic carcinoma) cells; assay: Impedance-based viability assay (xCELLigence SP), long treatment; type: cell-based; conditions: 72 h, read-out: cytotoxicity expressed in IC50, PANC-1
Source text: (Gibco®/Invitrogen Corporation, New York, NY, USA).
Data obtained from each experiment represent mathematical averages.

Row | Structure (SMILES) | IC50 [1] [nM] | IC50 [2] [nM] | IC50 [3] [nM]
1 | O=C1C2=C(CCN(Cc3ccc(F)c(F)c3)C2)N2CCN=C2N1Cc1ccc(I)cc1 [I/17] | > 100 | > 100 | 
2 | O=C1C2=C(CCN(Cc3ccccc3)C2)N2CCN=C2N1CC1CCNCC1 [I/96] | > 100 | > 100 | 
3 | Cc1ccccc1CN1C(=O)C2=C(CCN(Cc3ccc(N)cc3)C2)N2CCN=C12 [I/74] | > 100 | > 100 | 
4 | Nc1cccc(CN2CCC3=C(C2)C(=O)N(Cc2ccc(C(F)(F)F)c(F)c2)C2=NCCN23)c1 [I/80] | > 100 | > 100 | 
5 | [N-]=[N+]=Nc1ccc(CN2CCC3=C(C2)C(=O)N(Cc2ccc(C(F)(F)F)c(F)c2)C2=NCCN23)cc1 [I/114] | > 100 | > 100 | 
6 | Nc1ccc(CN2CCC3=C(C2)C(=O)N(CC2CCNCC2)C2=NCCN23)cc1 [I/93] | > 100 | > 100 | 
7 | O=C1C2=C(CCN(Cc3cccc(C(F)(F)F)c3)C2)N2CCN=C2N1Cc1ccc(F)cc1 [I/32] | > 100 | > 100 | 
8 | Nc1cccc(CN2C(=O)C3=C(CCN(Cc4cccc(F)c4)C3)N3CCN=C23)c1 [I/76] | > 100 | > 100 | 
9 | O=C1C2=C(CCN(Cc3ccc(F)c(F)c3F)C2)N2CCN=C2N1Cc1ccc(I)cc1 [I/18] | > 100 | > 100 | 
10 | NCc1cccc(CN2CCC3=C(C2)C(=O)N(Cc2ccc(C(F)(F)F)cc2)C2=NCCN23)c1 [I/69] | > 100 | > 100 | 
11 | [N-]=[N+]=Nc1ccc(CN2CCC3=C(C2)C(=O)N(Cc2ccc(C(F)(F)F)cc2)C2=NCCN23)cc1 [I/110] | > 100 | > 100 | 
12 | O=C1C2=C(CCN(Cc3ccc(F)c(F)c3F)C2)N2CCN=C2N1Cc1ccc(F)cc1 [I/34] | > 100 | > 100 | 
13 | O=C1C2=C(CCN(Cc3cc(C(F)(F)F)cc(C(F)(F)F)c3)C2)N2CCN=C2N1Cc1ccc(F)cc1 [I/24] | > 100 | > 100 | 
14 | Nc1cccc(CN2CCC3=C(C2)C(=O)N(Cc2ccc(I)cc2)C2=NCCN23)c1 [I/78] | > 100 | > 100 | 
15 | Cc1ccccc1CN1C(=O)C2=C(CCN(Cc3cccc(C(F)(F)F)c3)C2)N2CCN=C12 [I/13] | > 100 | > 100 | 
16 | O=C1C2=C(CCN(Cc3cccc(F)c3)C2)N2CCN=C2N1Cc1ccc([N+](=O)[O-])cc1F [I/49] | < 100 | < 100 | 
17 | [N-]=[N+]=Nc1ccc(CN2CCC3=C(C2)C(=O)N(Cc2cccc(F)c2)C2=NCCN23)cc1 [I/108] | > 100 | > 100 | 
18 | O=C1C2=C(CCN(Cc3cc(F)c(F)c(F)c3)C2)N2CCN=C2N1Cc1ccc(I)cc1 [I/19] | > 100 | > 100 | 
19 | O=C1C2=C(CCN(CC3CCNC3)C2)N2CCN=C2N1Cc1ccc(F)cc1 (stereo not shown) [I/98] | > 100 | > 100 | 
20 | [N-]=[N+]=Nc1cccc(CN2C(=O)C3=C(CCN(Cc4cccc(F)c4)C3)N3CCN=C23)c1 [I/105] | < 100 | ~100 | 
21 | Nc1ccc(CN2C(=O)C3=C(CCN(Cc4cc(F)cc(F)c4)C3)N3CCN=C23)cc1 [I/88] | > 100 | > 100 | 

Row | Structure (SMILES) | IC50 [1] [nM] | IC50 [2] [nM] | IC50 [3] [nM]
22 | Cc1ccccc1CN1C(=O)C2=C(CCN(CC3CCNC3)C2)N2CCN=C12 (stereo not shown) [I/97] | > 100 | > 100 | 
23 | O=C1C2=C(CCN(Cc3cc(F)c(F)c(F)c3)C2)N2CCN=C2N1Cc1ccc(F)cc1 [I/25] | > 100 | > 100 | 
24 | NCc1ccc(CN2C(=O)C3=C(CCN(Cc4ccccc4)C3)N3CCN=C23)cc1 [I/62] | > 100 | > 100 | 
25 | O=C1C2=C(CCN(Cc3cccc(F)c3)C2)N2CCN=C2N1Cc1ccc(Br)cc1 [I/4, reference compound] | < 100 | < 100 | 
26 | Nc1ccc(CN2CCC3=C(C2)C(=O)N(Cc2ccc(N)cc2)C2=NCCN23)cc1 [I/85] | > 100 | > 100 | 
27 | COc1cc(CN2C(=O)C3=C(CCN(Cc4ccccc4)C3)N3CCN=C23)cc(OC)c1OC [I/51] | > 100 | > 100 | 
28 | O=C1C2=C(CCN(Cc3cc(F)cc(F)c3)C2)N2CCN=C2N1Cc1ccc(I)cc1 [I/38] | < 100 | < 100 | 
29 | O=C1C2=C(CCN(Cc3ccc(F)c(F)c3)C2)N2CCN=C2N1Cc1ccc(F)cc1 [I/23] | > 100 | > 100 | 
30 | Nc1ccc(CN2CCC3=C(C2)C(=O)N(CC2CNC2)C2=NCCN23)cc1 [I/91] | > 100 | > 100 | 
31 | Cc1ccccc1CN1C(=O)C2=C(CCN(Cc3ccc(F)c(F)c3)C2)N2CCN=C12 [I/14] | > 100 | > 100 | 
32 | [N-]=[N+]=Nc1ccc(CN2CCC3=C(C2)C(=O)N(Cc2ccc(F)cc2)C2=NCCN23)cc1 [I/109] |  |  | 8900
33 | Cc1ccccc1CN1C(=O)C2=C(CCN(CC3CCCN3)C2)N2CCN=C12 (stereo not shown) [I/99] | > 100 | > 100 | 
34 | O=C1C2=C(CCN(Cc3cc(C(F)(F)F)cc(C(F)(F)F)c3)C2)N2CCN=C2N1Cc1ccc(I)cc1 [I/16] | > 100 | > 100 | 
35 | O=C1C2=C(CCN(Cc3cccc(C(F)(F)F)c3)C2)N2CCN=C2N1Cc1ccc(I)cc1 [I/15A] | > 100 | > 100 | 
36 | O=C1C2=C(CCN(CC3CCCN3)C2)N2CCN=C2N1Cc1ccc(F)cc1 (stereo not shown) [I/100] | > 100 | > 100 | 
37 | COc1cc(CN2C(=O)C3=C(CCN(Cc4ccc(N=[N+]=[N-])cc4)C3)N3CCN=C23)cc(OC)c1OC [I/116] | > 100 | > 100 | 
38 | Cc1ccccc1CN1C(=O)C2=C(CCN(CC3CCNCC3)C2)N2CCN=C12 [I/94] | > 100 | > 100 | 
39 | [N-]=[N+]=Nc1cccc(CN2C(=O)C3=C(CCN(Cc4ccccc4)C3)N3CCN=C23)c1 [I/102] | > 100 | > 100 | 
40 | COc1cc(CN2C(=O)C3=C(CCN(Cc4cccc(F)c4)C3)N3CCN=C23)cc(OC)c1OC [I/57] | > 100 | > 100 | 
41 | O=C1C2=C(CCN(Cc3cc(C(F)(F)F)cc(C(F)(F)F)c3)C2)N2CCN=C2N1Cc1ccc(C(F)(F)F)cc1 [I/21] | > 100 | > 100 | 
42 | Cc1ccccc1CN1C(=O)C2=C(CCN(Cc3cc(C(F)(F)F)cc(C(F)(F)F)c3)C2)N2CCN=C12 [I/15] | > 100 | > 100 | 

Row | Structure (SMILES) | IC50 [1] [nM] | IC50 [2] [nM] | IC50 [3] [nM]
43 | Nc1ccc(CN2CCC3=C(C2)C(=O)N(Cc2ccc(C(F)(F)F)c(F)c2)C2=NCCN23)cc1 [I/82] | > 100 | > 100 | 
44 | COCCOc1cc2ncnc(Nc3cccc(-c4cn(-c5ccc(CN6CCC7=C(C6)C(=O)N(Cc6ccccc6C)C6=NCCN67)cc5)nn4)c3)c2cc1OCCOC [I/122] | > 100 | > 100 | 
45 | O=C1C2=C(CCN(Cc3cccc(C(F)(F)F)c3)C2)N2CCN=C2N1Cc1ccc(C(F)(F)F)c(F)c1 [I/33] | > 100 | > 100 | 
46 | O=C1C2=C(CCN(Cc3ccccc3)C2)N2CCN=C2N1Cc1ccc(Br)cc1 [I/41] | > 100 | < 100 | 
47 | [N-]=[N+]=Nc1ccc(CN2CCC3=C(C2)C(=O)N(Cc2ccc(N=[N+]=[N-])cc2)C2=NCCN23)cc1 [I/117] | > 100 | > 100 | 
48 | Nc1ccc(CN2CCC3=C(C2)C(=O)N(Cc2cccc(F)c2)C2=NCCN23)cc1 [I/83] | > 100 | > 100 | 
49 | O=C1C2=C(CCN(CC3CCNCC3)C2)N2CCN=C2N1Cc1ccc(F)cc1 [I/95] | > 100 | > 100 | 
50 | Cc1ccccc1CN1C(=O)C2=C(CCN(CC3CNC3)C2)N2CCN=C12 [I/92] | > 100 | > 100 | 
51 | O=C1C2=C(CCN(Cc3cc(F)cc(F)c3)C2)N2CCN=C2N1Cc1ccc([N+](=O)[O-])cc1F [I/50] | < 100 | < 100 | 
52 | [N-]=[N+]=Nc1ccc(CN2CCC3=C(C2)C(=O)N(CC2CCNCC2)C2=NCCN23)cc1 [I/119] | > 100 | > 100 | 
53 | O=C1C2=C(CCN(Cc3cc(C(F)(F)F)cc(C(F)(F)F)c3)C2)N2CCN=C2N1Cc1ccc(C(F)(F)F)c(F)c1 [I/22] | > 100 | > 100 | 
54 | [N-]=[N+]=Nc1ccc(CN2CCC3=C(C2)C(=O)N(CC2CNC2)C2=NCCN23)cc1 [I/118] | > 100 | > 100 | 
55 | Cc1ccccc1CN1C(=O)C2=C(CCN(Cc3ccc(F)cc3C(F)(F)F)C2)N2CCN=C12 [I/12] | > 100 | > 100 | 
56 | Cc1ccccc1CN1C(=O)C2=C(CCN(Cc3cccc(N)c3)C2)N2CCN=C12 [I/77] | > 100 | > 100 | 
57 | O=C1C2=C(CCN(Cc3ccccc3)C2)N2CCN=C2N1Cc1cccc(I)c1 [I/56] | > 100 | > 100 | 
58 | COCCOc1cc2ncnc(Nc3cccc(-c4cn(-c5ccc(CN6C(=O)C7=C(CCN(Cc8ccccc8)C7)N7CCN=C67)cc5)nn4)c3)c2cc1OCCOC [I/123] | > 100 | > 100 | 
59 | [N-]=[N+]=Nc1ccc(CN2C(=O)C3=C(CCN(Cc4cccc(F)c4)C3)N3CCN=C23)cc1 [I/106] | ~100 | > 100 | 
60 | Nc1cccc(CN2CCC3=C(C2)C(=O)N(Cc2ccc(C(F)(F)F)cc2)C2=NCCN23)c1 [I/79] | > 100 | > 100 | 
61 | O=C1C2=C(CCN(Cc3ccccc3)C2)N2CCN=C2N1CC1CNC1 [I/90] | > 100 | > 100 | 
